Reference: patent US6784191B2, “Benzamidine derivatives” (Ajinomoto Co., Inc., priority 1999, dated 2004)

Columns and labels:
[1] = target: T1, activated human blood coagulation factor X (Homo sapiens, UniProt P00742); test: Determination of activity of inhibiting the activated blood-coagulation factor X (chromogenic substrate, initial rate); type: biochemical; settings: negative logarithm of concentration inhibiting 50% of initial rate, tris hydrochloride buffer pH 8.4, room temperature; for IC50: read-out: Activity of inhibiting activated blood coagulation factor X (pIC50) (converted)
T1 construct: purchased Enzyme Research Co
Experimental: Determination of Activity of Inhibiting the Activated Blood-coagulation Factor X
130 μl of 100 mM tris hydrochloride buffer adjusted to pH 8.4 was added to 10 μl of an aqueous solution of a compound to be tested. Then 10 μl of a 0.5 unit/ml solution of activated human blood coagulation factor X (a product of Enzyme Research Co.) in tris hydrochloride buffer of pH 8.4 was added to the resultant mixture. After the incubation at room temperature for 10 minutes, 50 μl of a solution of N-benzoyl-L-isoleucine-L-glutamine-glycine-L-arginine-P-nitroanilide hydrochloride (a product of Peptide Institute Inc.) adjusted to 0.8 mM with tris hydrochloride (pH 8.4) was added thereto. The absorbance was determined and then the initial reaction rate was determined. A control was prepared in the same manner as that described above except that the solution of the compound to be tested was replaced with 10 μl of tris hydrochloride buffer adjusted to pH 8.4. The absorbance was determined with MICROPLATE READER Model 3550-UV (a product of BIO RAD) at a wave length of 405 nm at intervals of 15 seconds for 16 minutes.

human thrombin = target: T2, human thrombin (Homo sapiens, UniProt P00734); test: Determination of thrombin-inhibiting activity (S-2238 chromogenic substrate, initial rate); type: biochemical; settings: negative logarithm of concentration inhibiting 50% of initial rate, tris hydrochloride buffer pH 8.4, room temperature; for IC50: read-out: Thrombin-inhibiting activity (pIC50) (converted)
T2 construct: human thrombin (a product of SIGMA Co.); purchased SIGMA Co
Experimental: Determination of Thrombin-Inhibiting Activity
130 μl of 100 mM tris hydrochloride buffer adjusted to pH 8.4 was added to 10 μl of an aqueous solution of a test compound. Then 10 μl of a solution of human thrombin (a product of SIGMA Co.) adjusted to 2 units/ml with tris hydrochloride buffer of pH 8.4 was added to the resultant mixture. After the incubation at room temperature for 10 minutes, 50 μl of a solution of D-phenylalanine-L-pipecolyl-L-arginine-P-nitroanilide dihydrochloride (S-2238; a product of Daiichi Kagaku Yakuhin Co.) adjusted to 0.4 mM with tris hydrochloride buffer of pH 8.4 was added thereto. The absorbance was determined and then the initial reaction rate was determined. A control was prepared in the same manner as that described above except that the solution of the compound to be tested was replaced with 10 μl of tris hydrochloride buffer adjusted to pH 8.4. The absorbance was determined with MICROPLATE READER Model 3550-UV (a product of […]) at a wave length of 405 nm at intervals of 15 seconds for 16 minutes.

[2] = test system: blood plasma (prothrombin time); test: Determination of blood anticoagulating activity by prothrombin time (PT) method; type: biochemical, human; settings: blood plasma from healthy people, citrate; Sysmex PT II rabbit brain thromboplastin, 37° C.
Experimental: Determination of Blood Anticoagulating Activity
The blood anticoagulating activity was determined by a prothrombin time (PT) determination method. The PT was determined as follows: The blood was taken from healthy people. 3.8% aqueous trisodium citrate solution was added to the blood in a volume ratio of 1:10. The blood plasma was separated by the centrifugation. 5 μl of DMSO solution containing a test compound was added to 45 μl of the blood plasma. After the incubation at room temperature for 2 minutes, a test tube containing the blood plasma solution was placed in Sysmex CA-3000 fully automatic blood coagulation determination device (a product of Toa Medical Electronics Co., Ltd.), and incubated at 37° C. for 3 minutes. 100 μl of Sysmex PT II (rabbit brain tissue thromboplastin, 13.2 mM calcium chloride; a product of Toa Medical Electronics Co., Ltd.) was fed into the test tube. PT was automatically determined with the device. A sample containing 5 μl of DMSO in place of the solution of the test compound was used as the control. The negative logarithm (pPT2) of the concentration of the test compound which elongated PT of the control to the twice as long was determined, and employed as the index of the blood anticoagulating activity.

T1 sequence (P00742 235-488 limits assumed): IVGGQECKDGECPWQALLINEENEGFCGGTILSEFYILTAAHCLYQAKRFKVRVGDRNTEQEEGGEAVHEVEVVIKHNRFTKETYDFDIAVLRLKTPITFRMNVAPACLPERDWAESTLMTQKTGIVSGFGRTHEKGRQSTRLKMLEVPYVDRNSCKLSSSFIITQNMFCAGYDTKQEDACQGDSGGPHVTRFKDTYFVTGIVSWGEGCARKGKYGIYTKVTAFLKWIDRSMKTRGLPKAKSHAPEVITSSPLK
T1 sequence (P00742 41-179 partner limits assumed): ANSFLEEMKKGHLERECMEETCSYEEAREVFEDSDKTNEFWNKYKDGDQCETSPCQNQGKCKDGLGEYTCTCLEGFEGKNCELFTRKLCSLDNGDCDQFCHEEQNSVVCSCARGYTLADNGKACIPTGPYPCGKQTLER

IC50 [1] [nM] | IC50 (human thrombin) [µM] | Compound | Thrombin-inhibiting activity (pIC50) (human thrombin) | pPT2 (negative logarithm of the concentration which elongated PT of the control to twice as long) [2] | Activity of inhibiting activated blood coagulation factor X (pIC50) [1]
2.51 | 39.8 | N=C(N)c1ccc(CCP(=O)(O)O)c(OCCNC(=O)c2ccc(C(=O)N3CCCC3)cc2)c1 [Compd. of Ex. 3, [2-(4-Amidino-2-[2-[4-(1-pyrrolidinecarbamoyl)benzoylamino]ethoxy]phenyl)ethyl]phosphoric acid mono-trifluoroacetate] | – | – | –
79.4 | > 100 | N/C(=N/O)c1ccc(CCP(=O)(O)O)c(OCCNC(=O)c2ccc(C(=O)N3CCCC3)cc2)c1 [Compd. of Ex. 6, [2-(4-Hydroxylamidino-2-[2-[4-(1-pyrrolidinecarbamoyl)benzoylamino]ethoxy]phenyl)ethyl]phosphoric acid monotrifluoroacetate] | – | – | –

The next lines start with the molecule.

Compound | IC50 [1] [nM] | IC50 (human thrombin) [µM] | Thrombin-inhibiting activity (pIC50) (human thrombin) | pPT2 (negative logarithm of the concentration which elongated PT of the control to twice as long) [2] | Activity of inhibiting activated blood coagulation factor X (pIC50) [1]
N=C(N)c1ccc(CCP(=O)(O)O)c(OCCNC(=O)C2CCN(c3ccncc3)CC2)c1 [Compd. of Ex. 1, [2-(4-Amidino-2-[2-[(1-(1-pyridine-4-yl)piperidine-4-carbonyl)amino]ethoxy]phenyl)ethyl]phosphoric acid bistrifluoroacetate] | 3.16 | > 316 | <3.5 | 6.8 | –
CC(=N)N1CCC(Oc2ccc(C(=O)NCCOc3cc(C(=N)N)ccc3CCP(=O)(O)O)cc2)CC1 [Compd. of Ex. 2] | 2.51 | > 100 | – | – | –
N=C(N)c1ccc(CCP(=O)(O)O)c(OC[C@H](CCC(=O)O)NC(=O)C2CCN(c3ccncc3)CC2)c1.O=C(O)C(F)(F)F.O=C(O)C(F)(F)F [Compd. of Ex. 4, (4S)-5-(5-amidino-2-(2-phosphorylethyl)phenoxy)-4-((1-(1-pyridine-4-yl)piperidine-4-carbonyl)-amino)pentanoic acid bistrifluoroacetate] | – | – | <4.0 | – | 8.7
